Read-outs that look alike come from different tables or passages of the source.
System: New Zealand white rabbits
Experiment: Effects on intraocular pressure (IOP) in rabbits, TONOPEN contact tonometer, topical unilateral application
Type: in vivo, rabbit
Settings: for maximal reduction of IOP / IC50: topical; for maximal reduction of IOP: n=8; for IC50: Oryctolagus cuniculus; for persistence of the IOP-lowering effect / time at which the maximal effect on IOP was observed: after topical application; for IOP-lowering effect after pretreatment with luzindole: luzindole 100 μg/10 μL applied 30 min before (FIG. 4)
Procedure: IOP was measured using a TONOPEN contact tonometer supplied by Xomed (Jacksonville, Fla., USA). Ten microliters of the agents were applied topically and unilaterally to the cornea, whereas the contralateral eye received the same volume of saline solution. The corneas were anesthetized to avoid any discomfort associated with the use of the tonometer. Two measurements were made before application of the agents. Melatonin (Sigma, St. […] A single dose was tested in a single animal on a single day.

Row | IC50 (read-out: IC50 for lowering IOP) | IC50 (read-out: IC50 for lowering IOP, equivalent dose) | IC50 (equivalent of the IC50 dose (FIG. 3), read-out: IC50 for lowering IOP, equivalent dose) | IC50 for lowering IOP (dose-response 10 pg/10 μL to 1 mg/10 μL, topical (FIG. 3)) | SMILES | maximal reduction of IOP (5-MCA-NAT, maximal at 100 pg/10 μL) | persistence of the IOP-lowering effect | time at which the maximal effect on IOP was observed | maximal IOP response relative to melatonin (comparison of maximal responses) | IOP-lowering effect after pretreatment with luzindole | effect on IOP when applied alone (100 μg/10 μL, over a duration of six hours) | maximal reduction of IOP (melatonin, maximal at 10 μg/10 μL)
1 | 423 ± 30 µg/mL | 1.8 ± 0.1 nM | – | – | COC(=O)Nc1ccc2[nH]cc(CCNC(C)=O)c2c1 [Example 5-MCA-NAT, 5-(methoxycarbonylamino)-N-acetyltryptamine] | 43.1±3.65% | 10 h | 2 h | almost twice | abolished | – | –
2 | – | – | – | – | CC(=O)NCCc1c(Cc2ccccc2)[nH]c2ccccc12 [luzindole] | – | – | – | – | – | had no effect | –
3 | – | – | 1.6 ± 0.1 nM | 363±23.0 ng/10 μL | COc1ccc2[nH]cc(CCNC(C)=O)c2c1 [melatonin] | – | 3 h | 1 h | – | abolished | – | 24±4.4%
